The NIST ThermoML archive (doi:10.1016/j.tca.2013.07.005)
± gives the expanded uncertainty stated by the source.

Legend:
[1] = Molar enthalpy of transition or fusion; conditions: Crystal; DSC
[2] = Crystal; for vapor or sublimation pressure: Transpiration method; for Normal melting temperature: DTA

## O=C(NC1=NCCC2(CCCCC2)S1)c1ccccc1 [N-(1-thia-3-azaspiro[5.5]undec-2-en-2-yl)benzamide]
[1]
  Molar enthalpy of transition or fusion: 27.9 ± 1.2 kJ/mol
[2]; 353.15 K
  vapor or sublimation pressure: 2.2e-09 kPa
[2]; 354.15 K
  vapor or sublimation pressure: 2.3e-09 kPa
[2]; 357.15 K
  vapor or sublimation pressure: 3.1e-09 kPa
[2]; 360.15 K
  vapor or sublimation pressure: 3.8e-09 kPa
[2]; 363.15 K
  vapor or sublimation pressure: 4.8e-09 kPa
[2]; 366.15 K
  vapor or sublimation pressure: 5.8e-09 kPa
[2]; 368.15 K
  vapor or sublimation pressure: 6.8e-09 kPa
[2]; 371.15 K
  vapor or sublimation pressure: 8.9e-09 kPa
[2]; 373.15 K
  vapor or sublimation pressure: 1.06e-08 kPa
[2]; 375.15 K
  vapor or sublimation pressure: 1.28e-08 kPa
[2]; 377.15 K
  vapor or sublimation pressure: 1.4e-08 kPa
[2]; 378.15 K
  vapor or sublimation pressure: 1.51e-08 kPa
[2]; 380.15 K
  vapor or sublimation pressure: 1.85e-08 kPa
[2]; 381.15 K
  vapor or sublimation pressure: 2e-08 kPa
[2]; 383.15 K
  vapor or sublimation pressure: 2.26e-08 kPa
[2]; 386.15 K
  vapor or sublimation pressure: 2.87e-08 kPa
[2]
  Normal melting temperature: 130.2 ± 2.1 °C

## COc1ccc(NC2=NCCC3(CCCCC3)S2)cc1 [N-(4-methoxyphenyl)-1-thia-3-azaspiro[5.5]undec-2-en-2-amine]
[1]
  Molar enthalpy of transition or fusion: 27.3 ± 1.1 kJ/mol
[2]; 353.15 K
  vapor or sublimation pressure: 3.4e-09 kPa
[2]; 355.15 K
  vapor or sublimation pressure: 4.7e-09 kPa
[2]; 358.15 K
  vapor or sublimation pressure: 6.5e-09 kPa
[2]; 360.15 K
  vapor or sublimation pressure: 9.5e-09 kPa
[2]; 362.15 K
  vapor or sublimation pressure: 1.15e-08 kPa
[2]; 365.15 K
  vapor or sublimation pressure: 1.64e-08 kPa
[2]; 367.15 K
  vapor or sublimation pressure: 2.17e-08 kPa
[2]; 369.15 K
  vapor or sublimation pressure: 2.73e-08 kPa
[2]; 371.15 K
  vapor or sublimation pressure: 3.63e-08 kPa
[2]; 373.15 K
  vapor or sublimation pressure: 4.28e-08 kPa
[2]; 375.15 K
  vapor or sublimation pressure: 5.23e-08 kPa
[2]; 377.15 K
  vapor or sublimation pressure: 6.63e-08 kPa
[2]; 381.15 K
  vapor or sublimation pressure: 9.73e-08 kPa
[2]
  Normal melting temperature: 115.4 ± 2.1 °C

## CC(=O)c1ccc(NC2=NCCC3(CCCCC3)S2)cc1
[1]
  Molar enthalpy of transition or fusion: 32.5 ± 1.2 kJ/mol
[2]; 373.15 K
  vapor or sublimation pressure: 4.1e-09 kPa
[2]; 375.15 K
  vapor or sublimation pressure: 5.3e-09 kPa
[2]; 377.15 K
  vapor or sublimation pressure: 6.8e-09 kPa
[2]; 379.15 K
  vapor or sublimation pressure: 8.8e-09 kPa
[2]; 381.15 K
  vapor or sublimation pressure: 1.13e-08 kPa
[2]; 383.15 K
  vapor or sublimation pressure: 1.46e-08 kPa
[2]; 385.15 K
  vapor or sublimation pressure: 1.87e-08 kPa
[2]; 386.15 K
  vapor or sublimation pressure: 2.15e-08 kPa
[2]; 387.15 K
  vapor or sublimation pressure: 2.52e-08 kPa
[2]; 388.15 K
  vapor or sublimation pressure: 2.87e-08 kPa
[2]; 390.15 K
  vapor or sublimation pressure: 3.44e-08 kPa
[2]; 391.15 K
  vapor or sublimation pressure: 3.72e-08 kPa
[2]; 392.15 K
  vapor or sublimation pressure: 4.46e-08 kPa
[2]; 393.15 K
  vapor or sublimation pressure: 5.03e-08 kPa
[2]; 394.15 K
  vapor or sublimation pressure: 5.5e-08 kPa
[2]; 396.15 K
  vapor or sublimation pressure: 7.28e-08 kPa
[2]; 397.15 K
  vapor or sublimation pressure: 7.97e-08 kPa
[2]
  Normal melting temperature: 163.5 ± 2.1 °C
